{"source": "paper PMC8780785", "about": "(Molecules, 2022)", "key": {"[1]": {"experiment": "Antioxidative potential over the three methods (ABTS, DPPH, luminol)", "conditions": "range depending on the method used", "method": "Chemiluminescence Assay: The assay of the antioxidant properties of the tested dyes was based on the measurement of luminol chemiluminescence induced by hydroxyl radicals in the Fe^2+-EDTA-H2O2-luminol system. […] Afterwards, the samples were placed in a Berthold–Lumat LB 9506 luminometer, and the solutions of reagents were added automatically as follows: 1.5 mM Fe^2+-EDTA (100 µL) and 4.4 mM H2O2 (100 µL). The chemiluminescence was measured with (I1) or without (I0) the addition of the tested dye. The inhibitory rate (IR) was calculated according to the following equation: IR(%)=(1−I1/Io)×100 DPPH assay: […] […] The change in absorbance caused by the tested dyes (XP) and ultrapure water as a negative control (XC) was monitored at 515 nm using a multiplate reader (Spark, Tecan, Austria). Simultaneously, the absorbance of the dye at a wavelength of 515 nm was investigated as a control of the dye–colour correction (XD). The radical reduction rate (DR) was calculated according to the following equation: DR(%)=(XC−(XP−XD)/XC)×100% ABTS assay: In this method, the ability of the tested dye to reduce the dark green ABTS radical cation (ABTS^●+) was evaluated. […] Next, the ABTS^●+ solution was diluted with PBS to an absorbance of 0.7 at 734 nm measured using a Tecan plate reader (Spark, Tecan, Austria). […]"}, "ABTS assay (antioxidant)": {"experiment": "ABTS assay (antioxidant)", "conditions": "concentration reducing 50% of radicals", "method": "ABTS assay: In this method, the ability of the tested dye to reduce the dark green ABTS radical cation (ABTS^●+) was evaluated. First, 5 mM phosphate buffer pH 7.4 (PBS) and 7.4 mM ABTS solution were prepared. During the ABTS solution preparation, ABTS was dissolved and ABTS^●+ was generated by reacting with K2S2O8 (2.4 mM final concentration) in a dark bottle at room temperature for 16–18 h. Next, the ABTS^●+ solution was diluted with PBS to an absorbance of 0.7 at 734 nm measured using a Tecan plate reader (Spark, Tecan, Austria). ABTS^●+ (990 µL) was added to the tested dye sample (10 µL) in a 96-well plate and incubated for 10 min at room temperature. The tested dye concentration was in the range from 0.01 to 1 mg/mL. Simultaneously, the negative control (XC) and the control of dye colour correction (XD) were incubated. The change in the absorbance of ABTS^●+ with the dye sample (XP) and controls were measured in the plate reader at 734 nm and the ABTS^●+ reduction rate (AR) was calculated according to the following equation: AR=(XC−(XP−XD)/XC)×100% All analyses allowing determination of antioxidative properties were performed in triplicate in room temperature 22 ± 3 °C. […] Trolox was used as positive controls for each technique."}, "[2]": {"tested_on": "human normal colon epithelial cell line CCD-841 CoTr", "experiment": "Cytotoxicity, LDH assay, colon epithelial cells", "assay_type": "cell-based", "conditions": "after 24 h", "method": "(§1) Cell cultures: The research was conducted on human normal colon epithelial cell line CCD-841 CoTr (ACCT, No. CRL-1807) and human normal colon fibroblast cell line CCD-18Co (ATCC, No. CRL-1459) obtained from the American Type Culture Collection (ATCC, Manassas, VA, USA). The cells were grown in a mixture of DMEM and RPMI 1640 media (1:1) containing 10% (v/v) of foetal bovine serum (FBS) and antibiotics (100 U/mL penicillin and 100 μg/mL streptomycin) and kept in standard conditions (at 37 °C in humidified atmosphere of 5% CO2). For the MTT and LDH tests, cells at the density of 1 × 10^5 cells /mL were seeded on 96-well plates. […] Lactate dehydrogenase(LDH) assay: This assay measures lactate dehydrogenase (LDH) released to the medium by cells with a damaged plasma membrane. […] Absorbance was recorded on a microplate reader (Spark, Tecan, Austria) at 490 nm with a reference wavelength at 690 nm. Results obtained from three independent experiments were reported as cell viability (%) calculated according to the formula: cell viability (%) = (100 − Abssample × Abscontrol^−1) × 100% All analyses were performed in triplicate and presented as mean ± SD. The IC50 value was calculated by nonlinear regression using a curve fitting program in GraphPad Prism 5.0."}, "Vibrio fisheri": {"tested_on": "Vibrio fisheri", "experiment": "Environmental toxicity, 81.9% Basic Test Microtox protocol", "assay_type": "cell-based", "conditions": "5 min", "description": "Toxicity was expressed as half maximal effective concentration (EC50) according to the 81.9% Basic Test Microtox protocol. All reagents and Vibrio […] bacterium were purchased from […]), the Polish representative of Modern Water Company (New Castle, DE, USA)."}, "DPPH assay (antioxidant)": {"experiment": "DPPH assay (antioxidant)", "conditions": "concentration reducing 50% of radicals", "method": "DPPH assay: […] Then, 100 µL of the tested dye was added to a 96-well plate containing 100 µL of a freshly prepared DPPH solution in 95% ethanol. […] The mixture was incubated at room temperature for 20 min. The change in absorbance caused by the tested dyes (XP) and ultrapure water as a negative control (XC) was monitored at 515 nm using a multiplate reader (Spark, Tecan, Austria). Simultaneously, the absorbance of the dye at a wavelength of 515 nm was investigated as a control of the dye–colour correction (XD). The radical reduction rate (DR) was calculated according to the following equation: DR(%)=(XC−(XP−XD)/XC)×100% All analyses allowing determination of antioxidative properties were performed in triplicate in room temperature 22 ± 3 °C. […] Trolox was used as positive controls for each technique."}, "[3]": {"tested_on": "human normal colon fibroblast cell line CCD-18Co", "experiment": "Cytotoxicity, LDH assay, fibroblasts", "assay_type": "cell-based", "conditions": "after 24 h", "method": "as §1"}, "laccase (LAC)": {"tested_on": "laccase (LAC)", "conditions": "read-out: KM (Michaelis–Menten constant); 0.1 M sodium-tartrate buffer pH 4, 440 nm, Lineweaver–Burk", "description": "The reaction mixture was scanned to determine the λ max cha-racterizing the main reaction product od dye using a Cary 50 Bio spectrophotometer (Varian, Palo Alto, CA, USA)."}, "[4]": {"experiment": "Cytotoxicity regardless of assay method and cells used", "assay_type": "cell-based", "conditions": "human; regardless of the toxicity assay method and the cells used; read-out: IC50 (cytotoxicity), lowest value", "experimental": "For the MTT and LDH tests, cells at the density of 1 × 10^5 cells /mL were seeded on 96-well plates. After 24 h incubation, the medium was replaced with a fresh one with 2% of FBS supplemented with ANS or not (control).\nMTT assay: This method is used to determine cell viability and proliferation. It is based on the measurement of the oxidoreductive activity of mitochondria with the yellow dye 3-(4,5-dimethylthiazo-2-yl)-2,5-diphenyl-tetrazolium bromide (MTT) which is metabolised in living cells to purple formazan crystals. After 24 h incubation with the examined compounds, 25 µL of MTT (5 mg/mL) was introduced onto each well and incubated for 3 h. Then, to stop the reaction and dissolve the formazan crystals, 100 µL of a 10 % SDS solution in 0.01 N HCL was added. The following day, the absorbance was determined spectrophotometrically at 570 nm using a microplate reader (Spark, Tecan, Austria).\nResults obtained from three independent experiments were reported as cell viability (%) calculated according to the formula: cell viability (%) = (100 − Abssample × Abscontrol^−1) × 100% […]"}, "[5]": {"experiment": "Chemiluminescence assay (luminol, antioxidant)", "conditions": "concentration reducing 50% of radicals", "method": "Chemiluminescence Assay: The assay of the antioxidant properties of the tested dyes was based on the measurement of luminol chemiluminescence induced by hydroxyl radicals in the Fe^2+-EDTA-H2O2-luminol system. […] Afterwards, the samples were placed in a Berthold–Lumat LB 9506 luminometer, and the solutions of reagents were added automatically as follows: 1.5 mM Fe^2+-EDTA (100 µL) and 4.4 mM H2O2 (100 µL). The chemiluminescence was measured with (I1) or without (I0) the addition of the tested dye. The inhibitory rate (IR) was calculated according to the following equation: IR(%)=(1−I1/Io)×100 All analyses allowing determination of antioxidative properties were performed in triplicate in room temperature 22 ± 3 °C. […] Trolox was used as positive controls for each technique."}, "[6]": {"experiment": "Cyclic voltammetry of the ANS substrate", "assay_type": "physicochemical", "conditions": "1 mM substrate, 0.1 M sodium tartrate buffer pH 4.5", "method": "All measurements were performed for the 1 mM substrate dissolved in 0.1 M sodium tartrate buffer at pH 4.5 in triplicate at room temperature 22 ± 3 °C. The potential was scanned with the scan speed of 50 mV/s from −400 to 1500 mV vs. Ag/AgCl/KClsat after holding the electrochemical system at the initial potential for 10 s."}, "S. aureus ATCC 25923": {"tested_on": "S. aureus ATCC 25923", "experiment": "MIC and MBC determination (CLSI protocol), S. aureus", "assay_type": "cell-based", "conditions": "Staphylococcus aureus, ATCC25923, read-out: MBC S. aureus", "method": "(§2) The stock solutions (10 mg/mL) of the tested substances were prepared in distilled water and afterwards diluted to the appropriate concentration in Mueller–Hinton Bullion. In each well of a 96-well plate, 300 µL of the mixture was inoculated with 10 µL of the bacterial culture (final density~10^2 cfu/mL). […] Then, 10 µL of the suspension from each well was transferred to a fresh sterile medium and incubated for another 24 h at 37 °C. The lack of turbidity indicated bactericidal activity of the investigated substances and the MBC value was thus determined."}, "[7]": {"tested_on": "human normal colon epithelial cell line CCD-841 CoTr", "experiment": "Cytotoxicity, MTT assay, colon epithelial cells", "assay_type": "cell-based", "conditions": "CCD-841, 24 h, read-out: IC50 Colon Epithelial Cells MTT", "method": "(§3) Cell cultures: The research was conducted on human normal colon epithelial cell line CCD-841 CoTr (ACCT, No. CRL-1807) and human normal colon fibroblast cell line CCD-18Co (ATCC, No. CRL-1459) obtained from the American Type Culture Collection (ATCC, Manassas, VA, USA). The cells were grown in a mixture of DMEM and RPMI 1640 media (1:1) containing 10% (v/v) of foetal bovine serum (FBS) and antibiotics (100 U/mL penicillin and 100 μg/mL streptomycin) and kept in standard conditions (at 37 °C in humidified atmosphere of 5% CO2). For the MTT and LDH tests, cells at the density of 1 × 10^5 cells /mL were seeded on 96-well plates. […] MTT assay: This method is used to determine cell viability and proliferation. […] Then, to stop the reaction and dissolve the formazan crystals, 100 µL of a 10 % SDS solution in 0.01 N HCL was added. The following day, the absorbance was determined spectrophotometrically at 570 nm using a microplate reader (Spark, Tecan, Austria). Results obtained from three independent experiments were reported as cell viability (%) calculated according to the formula: cell viability (%) = (100 − Abssample × Abscontrol^−1) × 100% All analyses were performed in triplicate and presented as mean ± SD. The IC50 value was calculated by nonlinear regression using a curve fitting program in GraphPad Prism 5.0."}, "[8]": {"tested_on": "S. epidermidis ATCC 14990", "experiment": "MIC and MBC determination (CLSI protocol), S. epidermidis", "assay_type": "cell-based", "conditions": "Staphylococcus epidermidis, ATCC14990, read-out: MBC S. epidermidis", "method": "as §2"}, "[9]": {"tested_on": "human normal colon fibroblast cell line CCD-18Co", "experiment": "Cytotoxicity, MTT assay, fibroblasts", "assay_type": "cell-based", "conditions": "24 h, read-out: IC50 Fibroblasts MTT", "method": "as §3"}}, "data": [{"smiles": "O=S(=O)(O)c1cccc2cccc(Nc3ccccc3)c12", "note": "[ANS, 8-anilino-1-naphthalenesulfonic acid]", "values": [{"measurement": "IC50 values (antioxidative potential)", "setting": "[1]", "value": "0.027 to 153", "unit": "µg/mL"}, {"measurement": "IC50 ABTS", "setting": "ABTS assay (antioxidant)", "value": 0.027, "unit": "µg/mL"}, {"measurement": "IC50", "setting": "[2]", "value": 382, "unit": "µg/mL"}, {"measurement": "EC50", "setting": "Vibrio fisheri", "value": 19, "unit": "µg/mL"}, {"measurement": "IC50 DPPH", "setting": "DPPH assay (antioxidant)", "value": 153, "unit": "µg/mL"}, {"measurement": "IC50", "setting": "[3]", "value": 247, "unit": "µg/mL"}, {"measurement": "Km", "setting": "laccase (LAC)", "value": 435, "unit": "µM"}, {"measurement": "IC50 at 24 h", "setting": "[4]", "value": "≥ 247", "unit": "µg/mL"}, {"measurement": "IC50 Luminol", "setting": "[5]", "value": 6, "unit": "µg/mL"}, {"measurement": "Eo vs. NHE (oxidation potential)", "setting": "[6]", "value": 0.768, "unit": "V"}, {"measurement": "MBC", "setting": "S. aureus ATCC 25923", "value": 400, "unit": "µg/mL"}, {"measurement": "IC50", "setting": "[7]", "value": 322, "unit": "µg/mL"}, {"measurement": "MBC", "setting": "[8]", "value": 400, "unit": "µg/mL"}, {"measurement": "IC50", "setting": "[9]", "value": 295, "unit": "µg/mL"}]}]}
